From patent US20040147562A1, “Methods of treating conditions associated with an EDG-1 receptor” (priority 2002, published 2004)
Read-outs that look alike come from different tables or passages of the source. Each block holds one molecule with its values, some of them ahead of it.

Legend:
Edg-7 = molecular target: T1, Edg-7 (Homo sapiens, UniProt Q9UBY5); assay: Intracellular calcium (FLIPR) assay, HTC cells expressing Edg-7; type: cell-based; conditions: Table 2; LPA-stimulated
T1 construct: expressed in transfected cells; host or cells: HTC rat hepatoma cells
T1 sequence (Q9UBY5 1-353): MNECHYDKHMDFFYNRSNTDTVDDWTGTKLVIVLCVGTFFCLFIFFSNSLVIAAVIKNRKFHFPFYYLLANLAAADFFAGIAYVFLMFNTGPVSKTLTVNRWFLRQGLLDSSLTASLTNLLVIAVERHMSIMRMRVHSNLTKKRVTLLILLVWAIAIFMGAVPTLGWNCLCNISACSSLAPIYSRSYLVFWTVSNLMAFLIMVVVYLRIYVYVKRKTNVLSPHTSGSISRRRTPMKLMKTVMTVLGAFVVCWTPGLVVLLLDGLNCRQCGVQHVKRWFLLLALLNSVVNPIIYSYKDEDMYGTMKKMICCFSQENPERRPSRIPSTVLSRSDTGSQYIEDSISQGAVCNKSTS

Edg-4 = Edg-4 (Homo sapiens, UniProt Q9HBW0); assay: Intracellular calcium (FLIPR) assay, HTC cells expressing Edg-4; type: cell-based; conditions: Table 2; LPA-stimulated
Edg-8 = molecular target: T2, Edg-8 (Homo sapiens, UniProt Q9H228); assay: Intracellular calcium (FLIPR) assay, HTC cells expressing Edg-8; type: cell-based; conditions: Table 2; S1P-stimulated
T2 construct: expressed in transfected cells; host or cells: HTC rat hepatoma cells

Edg-5 = molecular target: T3, Edg-5 (Homo sapiens, UniProt O95136); assay: Intracellular calcium (FLIPR) assay, HTC cells expressing Edg-5; type: cell-based; conditions: Table 2; S1P-stimulated
T3 construct: expressed in transfected cells; host or cells: HTC rat hepatoma cells

human Edg-1 receptors [1] = molecular target: human Edg-1 receptors (Homo sapiens, UniProt P21453); assay: Intracellular calcium (FLIPR) assay, HTC cells expressing Edg-1; type: cell-based; set-up: Edg 1 IC50 μM; fused on or other part: in the chimera reading: the third intracellular loop (i3) of Edg-3 (S1PR3) in place of Edg-1's own
Method: (§1) The compounds were tested in HTC cells expressing human Edg-1 receptors. […] The compounds were tested in this recombinant system first, and subsequently tested in cell lines expressing Edg-1 (in addition to other Edg receptors).
(§2) […] receptors such as Edg-1, couple to calcium effector pathways, and result in increases in intracellular calcium following receptor activation (An, 1998, J. Cell Biochem. Supp 30-31:147-157). This biological response lends itself to a very efficient, high-throughput screen using a Fluorescence Imaging Plate Reader (FLIPR; Molecular Devices, Sunnyvale, Calif.). The FLIPR system is a real-time, cell-based assay system with continuous fluorescence detection using a cooled CCD camera. The FLIPR system was used to develop an Edg-1 receptor screen. Rat hepatoma cells stably expressing Edg-1/3i3 chimera or Edg-1 and Gqi were plated on 384-well plates and loaded with a calcium dye loading kit (Molecular Devices, Sunnyvale, Calif.) for 1 hour at room temperature. Cells were then placed on the FLIPR^384 (Molecular Devices, Sunnyvale, Calif.) and excited by an argon laser at 488 nm. The data for the entire 384-well plate was updated every second. An integrated robotic pipettor allowed for simultaneous compound addition into each individual well in the plate.

human Edg-1 receptors [2] = assay: as above; type: cell-based; conditions: Edg-1 relative to other Edg receptors, inhibition (Table 2)
Method: as §1, §2

Edg-2 = molecular target: T4, Edg-2 (Homo sapiens, UniProt Q92633); assay: Intracellular calcium (FLIPR) assay, HTC cells expressing Edg-2; type: cell-based; conditions: Table 2; LPA-stimulated
T4 construct: expressed in transfected cells; host or cells: HTC rat hepatoma cells

Edg-6 = molecular target: T5, Edg-6 (Homo sapiens, UniProt O95977); assay: Intracellular calcium (FLIPR) assay, HTC cells expressing Edg-6; type: cell-based; conditions: Table 2; S1P-stimulated
T5 construct: expressed in transfected cells; host or cells: HTC rat hepatoma cells
T5 sequence (O95977 1-384): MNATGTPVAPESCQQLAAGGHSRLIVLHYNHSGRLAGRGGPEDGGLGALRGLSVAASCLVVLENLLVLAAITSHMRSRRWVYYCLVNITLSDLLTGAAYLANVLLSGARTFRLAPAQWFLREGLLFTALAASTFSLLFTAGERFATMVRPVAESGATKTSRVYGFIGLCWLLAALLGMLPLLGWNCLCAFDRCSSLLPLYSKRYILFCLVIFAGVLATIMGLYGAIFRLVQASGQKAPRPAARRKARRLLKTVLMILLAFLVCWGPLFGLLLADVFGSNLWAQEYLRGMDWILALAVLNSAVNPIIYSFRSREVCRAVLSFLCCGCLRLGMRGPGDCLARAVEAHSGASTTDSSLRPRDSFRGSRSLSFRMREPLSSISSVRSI

Edg-3 = molecular target: T6, Edg-3 (Homo sapiens, UniProt Q99500); assay: Intracellular calcium (FLIPR) assay, HTC cells expressing Edg-3; type: cell-based; conditions: Table 2; S1P-stimulated
T6 construct: expressed in transfected cells; host or cells: HTC rat hepatoma cells

[3] = tested on: human umbilical vein endothelial cells; assay: Trans-matrigel chemotaxis / invasion assay with HUVECs (modified Boyden chamber); type: cell-based; conditions: HUVECs, trans-matrigel; FIG. 10
Method: In addition to Edg-1, other Edg receptors are also implicated in S1P stimulated chemotaxis, including Edg-3 and Edg-6. To assess the relative roles of the Edg-1 receptors and Edg-3 receptors in S1P stimulated chemotaxis, the ability of S1P to evoke trans-matrigel chemotaxis was tested in the presence of the Edg-1 antagonist 101, the Edg-3 antagonist 301, and the combination of 101 and 301. These experiments were performed according to the migration and invasion assay protocols described in Section 7.12, below. The Edg-3 antagonist 301, 3-Methyl-2-phenyl-quinoline-4-carboxylic acid 4-fluoro-benzylamide, is extensively described in co-pending U.S. application Ser. No. 10/390,426, which is incorporated by reference in its entirety. 301 is identified as compound 101 in U.S. application Ser. No. 10/390,426. Further, 301 is commercially available from Specs (The Netherlands) as compound number AK-968/12971392.
(§3) S1P is a strong chemoattractant to human PBMCs. […] Several migration assays were performed to test this hypothesis and to determine the effect of Edg-1 agonists and antagonists on S1P mediated chemotaxis. The migration assays were performed according to the protocol described in Section 7.12, below. The results of theses assays are presented in FIG. 6, FIG. 7, FIG. 8, FIG. 9 and FIG. 13.
(§4) Cells were plated in a 24 well format using Fluoroblok filter insert plates ([…] pore size) or Fluoroblok matrigel coated filter insert plates (Becton Dickinson, San Diego, Calif.). The assay was a modified Boyden Chamber assay in which a cell suspension (1×10^5 cells/ml) was prepared in serum free medium and added to the top chamber. LPA or S1P (doses ranged from 0.1-10 μM in serum free medium) was added to the bottom chamber. Following a 20-24 hour incubation period, the number of cells migrating or invading into the lower chamber was quantitated by transferring the filter insert into a fresh 24-well plate containing 4 μg/ml calcein AM (Molecular Probes, Sunnyvale, Calif.) in Hank's Balanced Salt Solution and staining for one hour.
(§5) Detection was via fluorescent readout at 450 nm excitation/530 nm emission using a fluorimeter. The level of fluorescence correlated with cell number.

mouse T cells = assay: Mouse T cell migration in Transwell chambers with matrigel; type: cell-based; conditions: stimulant in bottom chamber; S1P at high concentrations; FIG. 14
Method: To further elucidate the role of the Edg-1 receptor in lymphocyte trafficking, migration of mouse T cells was analyzed in both in vitro and in vivo models. Migration of mouse T cells was first tested in Transwell chambers (Costar, Cambridge, Mass.) with polycarbonate fibers having a pore width of 8 μm, separated by a layer of matrigel. Stimulants S1P or exodus-2 were separately added to the bottom chamber. The effects of exodus-2 were tested alone, with S1P, and with S1P and Edg-1 antagonists 101 and 102.

[4] = tested on: mouse splenic CD4 T cells; assay: Lymphocyte migration in mouse dorsal air-pouch model; type: in vivo; conditions: CD4 T cells treated ex vivo, given intraperitoneally, lavage after 24 hours; S1P 1 μM; FIG. 15
Method: To test migration of mouse T cells in vivo, the ability of exodus-2 to attract mouse lymphocytes was assessed in the mouse dorsal air-pouch model. In these experiments, 0.5 ml 1 μM exodus-2 was introduced into a dorsal air-pouch produced by injecting 5 ml of filtered air subcutaneously. Mouse splenic CD4 T cells were fluorescently labeled with FM-DiI (Molecular Probes, Inc., Eugene, Oreg.), then treated with S1P (1 μM), 102, or 104. The treated CD4T cells were introduced into the peritoneal cavity. After 24 hours, lavage (1 ml) from the dorsal air pouch was assayed for fluorescence.

[5] = tested on: human peripheral blood mononuclear cells; assay: Migration of human peripheral blood mononuclear cells; type: cell-based; conditions: chemoattractant; FIG. 9, 13
Method: as §3, §4, §5
Human PBMCs are isolated from the buffy coats of healthy donors from the Stanford Blood Center. […]

murine CD4 T cells = assay: Murine CD4 T cell chemotactic response to exodus-2; type: cell-based
Method: To assess this modulation and to test the effects of Edg-1 agonists and antagonists on this effect, murine CD4 T cells chemotactic responses to exodus-2 were tested in the presence of S1P and the Edg-1 agonist 104. These experiments were performed according to the migration and invasion assay protocols described in Section 7.12, below.
The effects of Edg-1 antagonists on S1P regulation of the chemotactic response to exodus-2 were also assessed. This experiment was performed according to the migration and invasion assay protocols described in Section 7.12, below. […] Thus, these Edg-1 antagonists can antagonize both aspects of the regulation by S1P of exodus-2-mediated chemotaxis.
as §4, §5

[6] = Table 1, Edg-1 modulators, read-out: IC50

T6 sequence (Q99500 whole entry): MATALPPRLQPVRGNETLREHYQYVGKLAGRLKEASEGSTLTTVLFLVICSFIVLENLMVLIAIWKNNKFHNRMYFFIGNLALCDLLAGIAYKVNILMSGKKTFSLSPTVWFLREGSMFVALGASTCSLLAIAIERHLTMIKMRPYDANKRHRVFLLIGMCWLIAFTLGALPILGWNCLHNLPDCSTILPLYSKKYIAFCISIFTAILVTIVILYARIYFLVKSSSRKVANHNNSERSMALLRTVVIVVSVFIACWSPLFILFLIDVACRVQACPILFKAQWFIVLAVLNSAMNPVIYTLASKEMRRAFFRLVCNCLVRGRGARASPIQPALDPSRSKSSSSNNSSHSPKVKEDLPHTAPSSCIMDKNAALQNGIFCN
Sequence of Edg-4 (Q9HBW0 1-340 limits assumed): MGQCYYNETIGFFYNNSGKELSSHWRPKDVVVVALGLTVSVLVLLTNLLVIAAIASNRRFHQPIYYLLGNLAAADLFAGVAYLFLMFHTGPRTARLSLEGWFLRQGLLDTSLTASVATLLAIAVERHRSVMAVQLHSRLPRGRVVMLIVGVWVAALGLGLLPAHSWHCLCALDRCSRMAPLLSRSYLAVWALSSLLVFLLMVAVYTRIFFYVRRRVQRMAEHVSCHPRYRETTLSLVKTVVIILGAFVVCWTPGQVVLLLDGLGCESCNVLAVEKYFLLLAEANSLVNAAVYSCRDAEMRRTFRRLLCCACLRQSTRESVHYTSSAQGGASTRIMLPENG
T3 sequence (O95136 whole entry): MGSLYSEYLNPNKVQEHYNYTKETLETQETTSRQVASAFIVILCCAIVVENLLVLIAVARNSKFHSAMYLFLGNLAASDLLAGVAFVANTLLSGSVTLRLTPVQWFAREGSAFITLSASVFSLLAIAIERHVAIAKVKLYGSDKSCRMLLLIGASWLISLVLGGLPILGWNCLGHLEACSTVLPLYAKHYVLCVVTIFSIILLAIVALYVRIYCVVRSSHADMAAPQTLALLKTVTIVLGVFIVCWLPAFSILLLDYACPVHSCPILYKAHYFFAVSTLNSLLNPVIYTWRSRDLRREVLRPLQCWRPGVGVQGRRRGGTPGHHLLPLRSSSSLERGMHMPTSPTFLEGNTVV
T2 sequence (Q9H228 whole entry): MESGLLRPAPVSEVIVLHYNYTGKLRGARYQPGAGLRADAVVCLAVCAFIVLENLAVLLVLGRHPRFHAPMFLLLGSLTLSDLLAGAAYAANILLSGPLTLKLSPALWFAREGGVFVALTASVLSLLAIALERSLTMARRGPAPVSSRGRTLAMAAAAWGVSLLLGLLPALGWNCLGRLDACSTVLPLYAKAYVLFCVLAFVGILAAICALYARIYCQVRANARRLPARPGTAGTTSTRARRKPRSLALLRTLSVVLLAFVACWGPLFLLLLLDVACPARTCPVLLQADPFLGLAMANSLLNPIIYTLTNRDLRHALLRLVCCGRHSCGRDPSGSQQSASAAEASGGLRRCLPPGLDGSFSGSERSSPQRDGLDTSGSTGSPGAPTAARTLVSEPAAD
T4 sequence (Q92633 whole entry): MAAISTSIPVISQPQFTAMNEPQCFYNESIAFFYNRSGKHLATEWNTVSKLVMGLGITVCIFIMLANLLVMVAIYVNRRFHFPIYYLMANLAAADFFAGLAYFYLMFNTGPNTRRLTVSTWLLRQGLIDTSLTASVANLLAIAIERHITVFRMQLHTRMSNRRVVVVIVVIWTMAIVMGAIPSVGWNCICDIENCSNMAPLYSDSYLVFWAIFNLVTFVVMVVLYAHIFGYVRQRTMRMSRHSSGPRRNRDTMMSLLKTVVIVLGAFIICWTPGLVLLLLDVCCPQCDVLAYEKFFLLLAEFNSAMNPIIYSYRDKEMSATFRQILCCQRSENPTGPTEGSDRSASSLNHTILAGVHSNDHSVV

Molecule: COc1cc2c(cc1OC)[C@H]1CN3CCc4cc(OC)c(OC)cc4[C@H]3CN1CC2 [Compound 103]
IC50 (Edg-7): > 20 µM
IC50 (Edg-4): > 20 µM
IC50 (Edg-8): > 20 µM
IC50 (Edg-5): > 20 µM
IC50 (human Edg-1 receptors [1]; Table 2, inhibition of S1P response, read-out: Edg 1 IC50): 0.74 µM
Fold Selectivity (human Edg-1 receptors [2]): >27.0 Fold
IC50 (Edg-2): > 20 µM
IC50 (Edg-6): > 20 µM
IC50 (Edg-3): > 20 µM

Molecule: O=C(c1cccnc1)N1N=C(c2ccc(F)cc2)CC1(O)C(F)(F)F (centres unmarked) [Compound 112]
IC50 (human Edg-1 receptors [1]; [6]): 5.92 µM

Molecule: O=C(c1ccccc1F)N1N=C(C(F)(F)F)CC1(O)c1ccc(Cl)cc1 (centres unmarked) [Compound 113]
IC50 (human Edg-1 receptors [1]; [6]): 6.02 µM

Molecule: Cc1c(-c2ccccc2)nc2ccccc2c1C(=O)NCc1ccc(F)cc1 [Compound 301, 3-Methyl-2-phenyl-quinoline-4-carboxylic acid 4-fluoro-benzylamide, reference compound]
inhibition of S1P-stimulated chemotaxis [3]: inhibit S1P-stimulated chemotaxis

Molecule: CCCCCCCCCCCCC/C=C/[C@@H](O)[C@@H](N)COP(=O)(O)O [Compound S1P, sphingosine-1-phosphate, reference compound]
stimulation of T cell migration by stimulant alone (mouse T cells): do not stimulate T cell migration
migration of treated lymphocytes to exodus-2 in dorsal air-pouch [4]: desensitizes the lymphocytes to attraction by exodus-2
migration of human peripheral blood mononuclear cells [5]: attracts human PMBCs in a dose dependent manner
effect on chemotaxis of murine CD4 T cells to exodus-2 (murine CD4 T cells; low and high concentrations desensitize, moderate stimulate, FIG. 11): bell-shaped dose dependant response curve

Molecule: CCCCCCCCc1ccc(CCC(N)(CO)CO)cc1 [FTY720, reference compound]
effect on S1P-mediated desensitization of the chemotactic response to exodus-2 (murine CD4 T cells; high concentrations of S1P, FIG. 12): reverse S1P-mediated desensitization
effect on S1P-mediated stimulation of the chemotactic response to exodus-2 (murine CD4 T cells; moderate concentrations of S1P, FIG. 12): inhibit S1P-mediated stimulation

B1: exodus-2: cytokine, chemoattractant for lymphocytes (protein, UniProt O00585 24-134, looked up)
C-C motif chemokine 21: SDGGAQDCCLKYSQRKIPAKVVRSYRKQEPSLGCSIPAILFLPRKRSQAELCADPKELWVQQLMQHLDKTPSPQKPAQGCRKDRGASKTGKKGKGSKGCKRTERSQTPKGP
stimulation of T cell migration by stimulant alone (mouse T cells): does stimulate T cell migration

The next lines start with the values.

IC50 (human Edg-1 receptors [1]; [6]): 1.29 µM
Molecule: O=C(c1cccnc1)N1N=C(C(F)(F)F)CC1(O)c1ccc(Cl)cc1 (centres unmarked) [Compound 105]

IC50 (human Edg-1 receptors [1]; [6]): 1.74 µM
Molecule: CCc1ccc(C2=NN(C(=O)c3cccnc3)C(O)(C(F)(F)F)C2)cc1 (centres unmarked) [Compound 106]

IC50 (human Edg-1 receptors [1]; [6]): 3.51 µM
Molecule: O=C(c1cccnc1)N1N=C(c2ccccc2)CC1(O)C(F)(F)F (centres unmarked) [Compound 107]

IC50 (human Edg-1 receptors [1]; [6]): 3.56 µM
Molecule: Nc1ccc(C(=O)N2N=C(c3ccccc3)CC2(O)C(F)(F)F)cc1 (centres unmarked) [Compound 108]

IC50 (human Edg-1 receptors [1]; [6]): 3.94 µM
Molecule: Nc1ccc(C(=O)N2N=C(c3ccc(F)cc3)CC2(O)C(F)(F)F)cc1 (centres unmarked) [Compound 109]

IC50 (human Edg-1 receptors [1]; [6]): 4.58 µM
Molecule: Nc1ccc(C(=O)N2N=C(C(F)(F)F)CC2(O)c2ccc(Br)cc2)cc1 (centres unmarked) [Compound 110]

IC50 (human Edg-1 receptors [1]; [6]): 5.08 µM
Molecule: O=C(c1ccccc1)N1N=C(c2ccccc2)CC1(O)C(F)(F)F (centres unmarked) [Compound 111]
